Measured values as given in ChEMBL document CHEMBL1201862, “PubChem BioAssay data set” (2004).
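How tested: cells in 96-well plates exposed to compound for 48 hours at five concentrations. GI50 marks 50% less growth.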 Activity calls are given as the source filed them. Rule as the data show it: active = GI50 up to about 1.1 µM and inactive = higher.

Assays:
Assay in all cases: growth of human tumour cells (NCI), 48 h
786-0 = test system: 786-0
CAKI-1 = test system: CAKI-1
CCRF-CEM = test system: CCRF-CEM
COLO 205 = test system: COLO 205
HCT-15 = test system: HCT-15
HOP-62 = test system: HOP-62
IGROV-1 = test system: IGROV-1
MOLT-4 = test system: MOLT-4
NCI-H226 = test system: NCI-H226
NCI-H522 = test system: NCI-H522
SF-268 = test system: SF-268
SF-295 = test system: SF-295
SF-539 = test system: SF-539
SW-620 = test system: SW-620
UACC-257 = test system: UACC-257
NCI-H23 = test system: NCI-H23
U-251 = test system: U-251
MCF7 = test system: MCF7
MDA-MB-435 = test system: MDA-MB-435

CC12CCC(=O)N1[C@@H](c1ccccc1)[C@@H](c1ccccc1)O2 (some centres not stated)
GI50 (786-0): > 100 µM (inactive)
GI50 (CAKI-1): > 100 µM (inactive)
GI50 (CCRF-CEM): > 100 µM (inactive)
GI50 (COLO 205): > 100 µM (inactive)
GI50 (HCT-15): > 100 µM
GI50 (HOP-62): > 100 µM (inactive)
GI50 (IGROV-1): > 100 µM (inactive)
GI50 (MOLT-4): > 100 µM (inactive)
GI50 (NCI-H226): > 100 µM (inactive)
GI50 (NCI-H522): > 100 µM (inactive)
GI50 (SF-268): > 100 µM (inactive)
GI50 (SF-295): > 100 µM (inactive)
GI50 (SF-539): > 100 µM (inactive)
GI50 (SW-620): > 100 µM (inactive)
GI50 (UACC-257): > 100 µM (inactive)

COC(=O)C(Cc1nc2ccc(Cl)cc2nc1O)/C(=N/NC(N)=O)C(=O)Nc1ccc(Cl)cc1 (configuration not stated)
GI50 (786-0): > 100 µM (inactive)
GI50 (CAKI-1): > 100 µM (inactive)
GI50 (CCRF-CEM): > 100 µM (inactive)
GI50 (COLO 205): > 100 µM (inactive)
GI50 (HCT-15): > 100 µM
GI50 (HOP-62): > 100 µM (inactive)
GI50 (IGROV-1): > 100 µM (inactive)
GI50 (MOLT-4): > 100 µM (inactive)
GI50 (NCI-H226): > 100 µM (inactive)
GI50 (NCI-H23): > 100 µM (inactive)
GI50 (NCI-H522): > 100 µM (inactive)
GI50 (SF-268): > 100 µM (inactive)
GI50 (SF-295): > 100 µM (inactive)
GI50 (SF-539): > 100 µM (inactive)
GI50 (SW-620): > 100 µM (inactive)
GI50 (U-251): > 100 µM (inactive)
GI50 (UACC-257): > 100 µM (inactive)

CC(=O)Oc1ccc2c(-c3ccccc3)c(Oc3ccc(Cl)cc3)c(=O)oc2c1
GI50 (786-0): 16.4 µM (inactive)
GI50 (CAKI-1): 18.3 µM (inactive)
GI50 (CCRF-CEM): 15.4 µM (inactive)
GI50 (HCT-15): 3.16 µM
GI50 (HOP-62): 18.3 µM (inactive)
GI50 (IGROV-1): 15.9 µM (inactive)
GI50 (MCF7): 20.7 µM (inactive)
GI50 (MOLT-4): 18.1 µM (inactive)
GI50 (NCI-H226): 17.3 µM (inactive)
GI50 (NCI-H23): 18.7 µM (inactive)
GI50 (NCI-H522): 2.82 µM (inactive)
GI50 (SF-268): 6.17 µM (inactive)
GI50 (SF-295): 17.9 µM (inactive)
GI50 (SF-539): 16.4 µM (inactive)
GI50 (SW-620): 20.3 µM (inactive)
GI50 (U-251): 4.19 µM (inactive)
GI50 (UACC-257): 21.3 µM (inactive)

Cc1cccc(C(C)C)c1N1C(=O)C(=O)C(c2nc3ccccc3o2)C(=O)C1=O
GI50 (786-0): > 100 µM (inactive)
GI50 (CAKI-1): > 100 µM (inactive)
GI50 (CCRF-CEM): 20.2 µM (inactive)
GI50 (COLO 205): 41.8 µM (inactive)
GI50 (HCT-15): 35.5 µM
GI50 (HOP-62): > 100 µM (inactive)
GI50 (IGROV-1): > 100 µM (inactive)
GI50 (MOLT-4): 24.7 µM (inactive)
GI50 (NCI-H226): > 100 µM (inactive)
GI50 (NCI-H23): 80.2 µM (inactive)
GI50 (NCI-H522): 29.5 µM (inactive)
GI50 (SF-268): > 100 µM (inactive)
GI50 (SF-295): > 100 µM (inactive)
GI50 (SF-539): > 100 µM (inactive)
GI50 (SW-620): 56.8 µM (inactive)
GI50 (U-251): 89.3 µM (inactive)
GI50 (UACC-257): 51.9 µM (inactive)

CN1c2ccccc2N(C)C2C1N(C)c1ccccc1N2C (configuration not stated)
GI50 (786-0): 32.9 µM (inactive)
GI50 (CAKI-1): 15.1 µM (inactive)
GI50 (CCRF-CEM): 2.81 µM (inactive)
GI50 (COLO 205): 10.8 µM (inactive)
GI50 (HCT-15): 4.25 µM
GI50 (HOP-62): 34.3 µM (inactive)
GI50 (IGROV-1): 20.7 µM (inactive)
GI50 (MOLT-4): 2.86 µM (inactive)
GI50 (NCI-H226): 23.2 µM (inactive)
GI50 (NCI-H23): 16.8 µM (inactive)
GI50 (NCI-H522): 4.73 µM (inactive)
GI50 (SF-268): 12.3 µM (inactive)
GI50 (SF-295): 31.3 µM (inactive)
GI50 (SF-539): 15.3 µM (inactive)
GI50 (SW-620): 7.85 µM (inactive)
GI50 (U-251): 26.1 µM (inactive)
GI50 (UACC-257): 6.67 µM (inactive)

O=C1OC(CC(=O)c2ccc(Cl)cc2)C(Cl)=C1Cl (configuration not stated)
GI50 (786-0): > 100 µM (inactive)
GI50 (CAKI-1): > 100 µM (inactive)
GI50 (CCRF-CEM): 35.6 µM (inactive)
GI50 (COLO 205): > 100 µM (inactive)
GI50 (HCT-15): > 100 µM
GI50 (HOP-62): > 100 µM (inactive)
GI50 (IGROV-1): > 100 µM (inactive)
GI50 (MOLT-4): 39.2 µM (inactive)
GI50 (NCI-H226): > 100 µM (inactive)
GI50 (NCI-H23): > 100 µM (inactive)
GI50 (NCI-H522): 94.8 µM (inactive)
GI50 (SF-268): > 100 µM (inactive)
GI50 (SF-295): > 100 µM (inactive)
GI50 (SF-539): > 100 µM (inactive)
GI50 (SW-620): > 100 µM (inactive)
GI50 (U-251): > 100 µM (inactive)
GI50 (UACC-257): > 100 µM (inactive)

Clc1sc(Cl)c2c1[C@@H](Cl)C[C@@H]2Br
GI50 (786-0): > 100 µM (inactive)
GI50 (CAKI-1): > 100 µM (inactive)
GI50 (CCRF-CEM): 33.3 µM (inactive)
GI50 (COLO 205): > 100 µM (inactive)
GI50 (HCT-15): 97.1 µM
GI50 (HOP-62): > 100 µM (inactive)
GI50 (IGROV-1): 72.9 µM (inactive)
GI50 (MCF7): 43.8 µM (inactive)
GI50 (MDA-MB-435): 40.6 µM (inactive)
GI50 (MOLT-4): 18.6 µM (inactive)
GI50 (NCI-H23): 61.4 µM (inactive)
GI50 (NCI-H522): 30.8 µM (inactive)
GI50 (SF-268): > 100 µM (inactive)
GI50 (SF-295): > 100 µM (inactive)
GI50 (SW-620): 45.6 µM (inactive)
GI50 (U-251): > 100 µM (inactive)
GI50 (UACC-257): 70.1 µM (inactive)

N#Cc1cccc(N2C(=O)c3ccc(C(=O)c4ccc5c(c4)C(=O)N(c4cccc(C#N)c4)C5=O)cc3C2=O)c1
GI50 (786-0): 64.4 µM (inactive)
GI50 (CAKI-1): > 100 µM (inactive)
GI50 (CCRF-CEM): > 100 µM (inactive)
GI50 (COLO 205): > 100 µM (inactive)
GI50 (HCT-15): > 100 µM
GI50 (HOP-62): > 100 µM (inactive)
GI50 (IGROV-1): > 100 µM (inactive)
GI50 (MOLT-4): > 100 µM (inactive)
GI50 (NCI-H226): > 100 µM (inactive)
GI50 (NCI-H23): > 100 µM (inactive)
GI50 (NCI-H522): > 100 µM (inactive)
GI50 (SF-268): > 100 µM (inactive)
GI50 (SF-295): > 100 µM (inactive)
GI50 (SF-539): > 100 µM (inactive)
GI50 (SW-620): > 100 µM (inactive)
GI50 (U-251): 35.8 µM (inactive)
GI50 (UACC-257): > 100 µM (inactive)

COC(=O)NN1C(C)=C(C(=O)OC)C2(CCOC2=O)C1(C)O (configuration not stated)
GI50 (786-0): > 100 µM (inactive)
GI50 (CAKI-1): > 100 µM (inactive)
GI50 (CCRF-CEM): > 100 µM (inactive)
GI50 (COLO 205): > 100 µM (inactive)
GI50 (HCT-15): > 100 µM
GI50 (HOP-62): > 100 µM (inactive)
GI50 (IGROV-1): > 100 µM (inactive)
GI50 (MOLT-4): > 100 µM (inactive)
GI50 (NCI-H226): > 100 µM (inactive)
GI50 (NCI-H23): > 100 µM (inactive)
GI50 (NCI-H522): > 100 µM (inactive)
GI50 (SF-268): > 100 µM (inactive)
GI50 (SF-295): > 100 µM (inactive)
GI50 (SF-539): > 100 µM (inactive)
GI50 (SW-620): > 100 µM (inactive)
GI50 (U-251): > 100 µM (inactive)
GI50 (UACC-257): > 100 µM (inactive)

CC1C[C@@H]2C(=O)NC(=O)[C@@H]2c2c1c1ccccc1n2C (some centres not stated)
GI50 (786-0): > 100 µM (inactive)
GI50 (CAKI-1): > 100 µM (inactive)
GI50 (CCRF-CEM): 97.9 µM (inactive)
GI50 (COLO 205): > 100 µM (inactive)
GI50 (HCT-15): > 100 µM
GI50 (HOP-62): > 100 µM (inactive)
GI50 (IGROV-1): > 100 µM (inactive)
GI50 (MOLT-4): > 100 µM (inactive)
GI50 (NCI-H226): > 100 µM (inactive)
GI50 (NCI-H23): > 100 µM (inactive)
GI50 (NCI-H522): > 100 µM (inactive)
GI50 (SF-268): > 100 µM (inactive)
GI50 (SF-295): > 100 µM (inactive)
GI50 (SF-539): > 100 µM (inactive)
GI50 (SW-620): > 100 µM (inactive)
GI50 (U-251): > 100 µM (inactive)
GI50 (UACC-257): > 100 µM (inactive)

Nc1nnc(N)n1N
GI50 (786-0): > 100 µM (inactive)
GI50 (CAKI-1): > 100 µM (inactive)
GI50 (CCRF-CEM): > 100 µM (inactive)
GI50 (COLO 205): > 100 µM (inactive)
GI50 (HCT-15): > 100 µM
GI50 (HOP-62): > 100 µM (inactive)
GI50 (IGROV-1): > 100 µM (inactive)
GI50 (MOLT-4): > 100 µM (inactive)
GI50 (NCI-H226): > 100 µM (inactive)
GI50 (NCI-H23): > 100 µM (inactive)
GI50 (NCI-H522): > 100 µM (inactive)
GI50 (SF-268): > 100 µM (inactive)
GI50 (SF-295): > 100 µM (inactive)
GI50 (SF-539): > 100 µM (inactive)
GI50 (SW-620): > 100 µM (inactive)
GI50 (U-251): > 100 µM (inactive)
GI50 (UACC-257): > 100 µM (inactive)

CCN(CC)c1ccc2cc3ccc(N(CC)CC)cc3[o+]c2c1
GI50 (786-0): 2.97 µM (inactive)
GI50 (CAKI-1): 4.06 µM (inactive)
GI50 (CCRF-CEM): 0.0419 µM (active)
GI50 (COLO 205): 0.798 µM (active)
GI50 (HCT-15): 2.07 µM
GI50 (HOP-62): 3.31 µM (inactive)
GI50 (IGROV-1): 2.08 µM (inactive)
GI50 (MOLT-4): 0.127 µM (active)
GI50 (NCI-H226): 5.62 µM (inactive)
GI50 (NCI-H23): 0.946 µM (active)
GI50 (NCI-H522): 1.69 µM (inactive)
GI50 (SF-268): 1.29 µM (inactive)
GI50 (SF-295): 4.48 µM (inactive)
GI50 (SF-539): 2.02 µM (inactive)
GI50 (SW-620): 0.237 µM (active)
GI50 (U-251): 0.624 µM (active)
GI50 (UACC-257): 2.59 µM (inactive)
